For assay [1], the target named is Protein Wnt-3a (Mus musculus, UniProt P27467). Put plainly: antagonism of Wnt3a pathway luciferase reporter – Wnt-LIGHT cells, luminescence, selectivity assay for Gli-SUFU antagonist project, dose response (AID 651570).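 Also: Wnt-LIGHT reporter cells stimulated with conditioned medium from Wnt3a-producing cells.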 The settings on record: read-out: IC50_Mean. The class given is functional. In general terms: Reporter assays use an easily measured gene product as a stand-in for the process of interest.

Assay [2] can be described thus: viability of uninfected HEp-2 cells – cell-based, HTS, cytotoxicity control for RSV inhibitor project, dose response (AID 2410). The class given is functional. Particulars: human respiratory syncytial virus.
Assay [3] in a line: cells. It counts as functional, cell-based.
Assay [4] in a line: blockers of CRF-binding protein–CRF-R2 complex – cell-based, uHTS hits, 384-well, dose response (AID 651639). The class given is functional, Homo sapiens. Particulars: read-out: IC50_Mean.
Assay [5] in a line: cells. The class given is functional, cell-based. This is another data set of the same source.
Assay [6] deals with SUMO-activating enzyme (Homo sapiens, UniProt Q9UBT2). Kind of assay: blockers of UBC9-mediated SUMO conjugation – biochemical, AlphaScreen, SUMOylation inhibitor project, confirmation (AID 2018). The class given is functional.
The target of assay [7] is T1, Corticotropin-releasing factor receptor 2/Corticotropin-releasing factor-binding protein (Homo sapiens, UniProt P24387+Q13324).
T1 sequence (Q13324 whole entry): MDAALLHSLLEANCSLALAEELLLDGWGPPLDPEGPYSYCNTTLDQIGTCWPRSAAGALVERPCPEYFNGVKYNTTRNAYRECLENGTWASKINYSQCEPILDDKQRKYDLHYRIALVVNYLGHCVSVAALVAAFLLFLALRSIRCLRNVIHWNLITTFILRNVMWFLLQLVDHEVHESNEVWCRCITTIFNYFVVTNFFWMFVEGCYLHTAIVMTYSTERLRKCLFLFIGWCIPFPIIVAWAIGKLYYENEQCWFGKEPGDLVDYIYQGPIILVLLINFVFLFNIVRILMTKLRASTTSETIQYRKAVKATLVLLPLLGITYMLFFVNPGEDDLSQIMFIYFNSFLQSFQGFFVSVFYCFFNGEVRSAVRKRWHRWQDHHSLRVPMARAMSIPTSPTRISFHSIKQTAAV
T1 sequence (P24387 whole entry): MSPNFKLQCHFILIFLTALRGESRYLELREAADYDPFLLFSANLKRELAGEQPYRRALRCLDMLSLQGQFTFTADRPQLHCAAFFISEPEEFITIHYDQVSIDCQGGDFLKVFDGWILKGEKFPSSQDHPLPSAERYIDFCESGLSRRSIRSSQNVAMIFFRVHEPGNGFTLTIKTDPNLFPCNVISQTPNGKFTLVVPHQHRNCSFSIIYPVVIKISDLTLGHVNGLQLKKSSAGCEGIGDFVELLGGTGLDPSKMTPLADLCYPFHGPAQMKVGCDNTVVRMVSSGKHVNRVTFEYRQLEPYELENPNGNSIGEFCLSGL
Put plainly: Dose Response confirmation of uHTS hits for small molecule antagonists of the CRF-binding protein and CRF-R2 receptor complex. It counts as functional. The settings on record: read-out: IC50_Mean.

Assay [8] has as its target T1, Corticotropin-releasing factor receptor 2/Corticotropin-releasing factor-binding protein. Put plainly: activators of CRF receptor 2 with binding protein – uHTS hits, confirmation (AID 602473). Particulars: read-out: EC50_Mean. The class given is functional.
In assay [9] the test system is INS1. Put plainly: INS-1E survival protection against cytokine death – cell-based, luminescence, retest, dose response (AID 449756).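 Also: cell death triggered by IL-1 beta plus TNF-alpha plus IFN-gamma mixture; protective hits raise ATP signal compared with cytokine alone wells.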 It counts as functional. The settings on record: Rattus norvegicus.
For assay [10], the target named is Cytochrome P450 2C9 (Homo sapiens, UniProt P11712).
Assay [11] is described as follows: bead-based luminescence quenchers, dual-tagged ARNT – biochemical, AlphaScreen, cherry-pick, artefact control for ARNT-TACC3 interaction inhibitor project, dose response (AID 651705).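 Also: AlphaScreen bead proximity signal that flags compounds interfering with the detection technology; potency reflects signal decrease which marks the compound as an assay artifact.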 The class given is functional. (In Alpha technology, singlet oxygen from a donor bead excites a nearby acceptor bead.)
For assay [12], the target named is T2, Rac GTPase-activating protein 1 (Homo sapiens, UniProt Q9H0H5).
T2 sequence (Q9H0H5 whole entry): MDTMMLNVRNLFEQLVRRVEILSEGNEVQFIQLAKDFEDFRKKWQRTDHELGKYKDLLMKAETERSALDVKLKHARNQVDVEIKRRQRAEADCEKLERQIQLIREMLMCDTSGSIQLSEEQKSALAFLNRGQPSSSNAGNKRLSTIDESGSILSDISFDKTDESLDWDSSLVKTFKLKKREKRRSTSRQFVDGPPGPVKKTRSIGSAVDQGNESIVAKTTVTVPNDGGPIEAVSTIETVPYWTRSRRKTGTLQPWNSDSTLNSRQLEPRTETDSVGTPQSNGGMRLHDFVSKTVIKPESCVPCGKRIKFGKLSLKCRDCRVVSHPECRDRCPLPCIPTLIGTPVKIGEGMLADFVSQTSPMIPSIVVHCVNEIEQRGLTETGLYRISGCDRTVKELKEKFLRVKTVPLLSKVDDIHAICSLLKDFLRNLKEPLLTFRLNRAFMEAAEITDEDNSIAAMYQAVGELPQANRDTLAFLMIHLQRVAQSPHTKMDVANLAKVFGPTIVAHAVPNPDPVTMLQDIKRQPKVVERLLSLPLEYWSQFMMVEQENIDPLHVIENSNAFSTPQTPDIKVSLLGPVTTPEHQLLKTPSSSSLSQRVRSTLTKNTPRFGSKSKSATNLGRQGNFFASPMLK
Put plainly: blockers of MgcRacGAP-driven Rac1 GTP hydrolysis – biochemical, ADP Hunter fluorescence, primary and confirmatory, confirmation (AID 624330). The class given is functional.

In assay [13] the target is T3, Replicative DNA helicase DnaB (Mycobacterium tuberculosis, UniProt P9WMR3).
T3 sequence (P9WMR3 whole entry): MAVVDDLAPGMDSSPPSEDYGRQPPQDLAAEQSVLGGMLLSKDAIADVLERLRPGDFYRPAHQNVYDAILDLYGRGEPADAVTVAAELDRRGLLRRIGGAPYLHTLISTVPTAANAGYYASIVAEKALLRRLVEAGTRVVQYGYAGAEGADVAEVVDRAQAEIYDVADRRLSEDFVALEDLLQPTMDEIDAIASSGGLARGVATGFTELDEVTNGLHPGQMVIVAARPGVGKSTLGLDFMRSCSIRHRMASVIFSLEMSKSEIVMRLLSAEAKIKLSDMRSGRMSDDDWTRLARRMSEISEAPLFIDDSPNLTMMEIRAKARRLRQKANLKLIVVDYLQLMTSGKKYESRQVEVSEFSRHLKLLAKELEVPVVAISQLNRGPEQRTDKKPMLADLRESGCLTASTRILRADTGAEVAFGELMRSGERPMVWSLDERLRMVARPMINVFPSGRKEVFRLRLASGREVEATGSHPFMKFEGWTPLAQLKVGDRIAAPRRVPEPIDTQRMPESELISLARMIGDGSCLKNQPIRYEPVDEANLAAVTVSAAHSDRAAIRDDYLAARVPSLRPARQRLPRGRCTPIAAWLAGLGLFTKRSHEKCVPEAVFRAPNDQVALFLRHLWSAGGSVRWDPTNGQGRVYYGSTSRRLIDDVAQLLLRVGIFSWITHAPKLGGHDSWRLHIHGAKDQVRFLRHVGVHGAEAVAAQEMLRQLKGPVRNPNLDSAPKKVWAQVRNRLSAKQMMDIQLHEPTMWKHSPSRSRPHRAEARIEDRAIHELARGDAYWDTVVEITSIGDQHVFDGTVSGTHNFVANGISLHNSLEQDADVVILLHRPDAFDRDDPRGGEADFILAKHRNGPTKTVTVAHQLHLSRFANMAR
Kind of assay: DnaB intein splicing inhibitors, dose response, biochemical, cell-free fluorescence (AID 449749). The class given is functional.

The target of assay [14] is Glucose-6-phosphate 1-dehydrogenase (Homo sapiens, UniProt P11413). Put plainly: inhibition of Homo sapiens G6PD, dose series – biochemical, fluorescence, selectivity assay for P. falciparum G6PD inhibitor project, dose response (AID 504792). The class given is functional.
The target in assay [15] is Induced myeloid leukemia cell differentiation protein Mcl-1 (Homo sapiens, UniProt Q07820). It counts as functional.
Assay [16] addresses T4, Protein RecA (Mycobacterium tuberculosis, UniProt P9WHJ3).
T4 sequence (P9WHJ3 whole entry): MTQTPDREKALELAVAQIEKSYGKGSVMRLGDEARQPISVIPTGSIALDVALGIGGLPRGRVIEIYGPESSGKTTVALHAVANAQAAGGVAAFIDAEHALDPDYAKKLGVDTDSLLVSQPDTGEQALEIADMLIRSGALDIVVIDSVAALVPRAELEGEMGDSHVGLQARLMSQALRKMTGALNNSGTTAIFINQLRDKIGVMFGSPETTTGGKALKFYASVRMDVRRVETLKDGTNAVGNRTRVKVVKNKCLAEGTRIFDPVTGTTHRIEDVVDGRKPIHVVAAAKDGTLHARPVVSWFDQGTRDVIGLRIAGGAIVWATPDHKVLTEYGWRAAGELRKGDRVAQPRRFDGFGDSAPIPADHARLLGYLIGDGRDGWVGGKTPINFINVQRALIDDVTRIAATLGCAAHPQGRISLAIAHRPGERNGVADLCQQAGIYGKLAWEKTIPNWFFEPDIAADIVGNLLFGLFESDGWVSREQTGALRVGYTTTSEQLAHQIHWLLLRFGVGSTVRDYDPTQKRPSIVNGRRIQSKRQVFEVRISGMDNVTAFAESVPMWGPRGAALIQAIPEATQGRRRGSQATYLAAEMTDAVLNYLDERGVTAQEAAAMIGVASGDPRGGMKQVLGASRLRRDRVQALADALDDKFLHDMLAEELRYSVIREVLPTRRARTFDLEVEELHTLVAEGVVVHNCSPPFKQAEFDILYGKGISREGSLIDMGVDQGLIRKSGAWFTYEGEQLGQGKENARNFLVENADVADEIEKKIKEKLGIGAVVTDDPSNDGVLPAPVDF
Put plainly: Fluorescence Cell-Free Homogeneous Dose Retest to Identify Inhibitors of RecA-Intein Splicing Activity. [Related pubchem assays (depositor defined):AID2097, AID2223, AID489010, AID492950]. The class given is functional.

The target in assay [17] is T5, Small ubiquitin-related modifier 1 (Homo sapiens, UniProt P63165). Put plainly: SUMO1 protein interaction blockers, potency – biochemical, fluorescence polarization, uHTS hits, dose response (AID 624382). It counts as functional. The settings on record: read-out: IC50_Mean.
In assay [18] the target is T5, Small ubiquitin-related modifier 1. Put plainly: SUMO1 protein-protein binding blockers, potency – biochemical, FRET, dose response (AID 624383). Particulars: read-out: IC50_Mean. The class given is functional.
Assay [19] deals with SN12K1. Kind of assay: cells. It counts as functional. The settings on record: Homo sapiens.
Assay [20] has as its system P388/ADR. Kind of assay: cells. It counts as functional. The settings on record: Mus musculus.
The subject of assay [21] is P388. Kind of assay: cells. It counts as functional. Particulars: Mus musculus.

Active and inactive are the calls of the source.

Chain of Protein Wnt-3a (P27467 whole entry): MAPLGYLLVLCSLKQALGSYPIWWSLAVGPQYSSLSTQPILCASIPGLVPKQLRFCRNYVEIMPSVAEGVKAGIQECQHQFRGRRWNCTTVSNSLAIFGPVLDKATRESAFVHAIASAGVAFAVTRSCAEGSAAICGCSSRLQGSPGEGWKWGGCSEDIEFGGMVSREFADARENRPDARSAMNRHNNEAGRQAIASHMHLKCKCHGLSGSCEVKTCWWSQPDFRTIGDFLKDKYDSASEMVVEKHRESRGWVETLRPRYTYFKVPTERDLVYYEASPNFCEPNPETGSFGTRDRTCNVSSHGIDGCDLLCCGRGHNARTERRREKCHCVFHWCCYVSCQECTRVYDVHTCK
T5 sequence (P63165 whole entry): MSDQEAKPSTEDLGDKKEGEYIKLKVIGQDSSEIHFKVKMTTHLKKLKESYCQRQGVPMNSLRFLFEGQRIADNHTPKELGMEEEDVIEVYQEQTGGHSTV
Chain of Cytochrome P450 2C9 (P11712 whole entry): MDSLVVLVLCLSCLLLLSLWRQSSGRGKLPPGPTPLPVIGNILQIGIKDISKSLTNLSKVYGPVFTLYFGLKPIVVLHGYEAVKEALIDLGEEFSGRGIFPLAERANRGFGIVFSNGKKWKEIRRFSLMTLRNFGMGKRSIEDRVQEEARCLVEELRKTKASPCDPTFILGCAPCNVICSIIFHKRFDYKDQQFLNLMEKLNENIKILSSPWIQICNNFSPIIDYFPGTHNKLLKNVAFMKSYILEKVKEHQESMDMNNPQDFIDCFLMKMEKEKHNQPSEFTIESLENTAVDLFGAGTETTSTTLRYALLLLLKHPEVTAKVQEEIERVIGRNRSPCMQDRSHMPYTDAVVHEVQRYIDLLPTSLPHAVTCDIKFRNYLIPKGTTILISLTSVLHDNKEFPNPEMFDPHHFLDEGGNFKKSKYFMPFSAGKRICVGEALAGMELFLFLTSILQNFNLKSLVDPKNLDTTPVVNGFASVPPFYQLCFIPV
Chain of Glucose-6-phosphate 1-dehydrogenase (P11413 whole entry): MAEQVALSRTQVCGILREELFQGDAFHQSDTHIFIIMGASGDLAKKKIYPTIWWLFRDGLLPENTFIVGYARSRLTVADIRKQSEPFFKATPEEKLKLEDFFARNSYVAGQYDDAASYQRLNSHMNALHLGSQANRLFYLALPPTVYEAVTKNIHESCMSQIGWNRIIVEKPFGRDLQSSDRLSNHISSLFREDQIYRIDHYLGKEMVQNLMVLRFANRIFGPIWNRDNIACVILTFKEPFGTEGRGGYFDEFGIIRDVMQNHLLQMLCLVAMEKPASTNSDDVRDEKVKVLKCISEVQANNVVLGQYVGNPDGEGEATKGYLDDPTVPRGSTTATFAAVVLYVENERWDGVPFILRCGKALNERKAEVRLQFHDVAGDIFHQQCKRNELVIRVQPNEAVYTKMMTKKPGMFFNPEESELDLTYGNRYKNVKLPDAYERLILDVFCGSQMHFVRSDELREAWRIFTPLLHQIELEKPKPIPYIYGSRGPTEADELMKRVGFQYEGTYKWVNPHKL
Chain of SUMO-activating enzyme (Q9UBE0 whole entry): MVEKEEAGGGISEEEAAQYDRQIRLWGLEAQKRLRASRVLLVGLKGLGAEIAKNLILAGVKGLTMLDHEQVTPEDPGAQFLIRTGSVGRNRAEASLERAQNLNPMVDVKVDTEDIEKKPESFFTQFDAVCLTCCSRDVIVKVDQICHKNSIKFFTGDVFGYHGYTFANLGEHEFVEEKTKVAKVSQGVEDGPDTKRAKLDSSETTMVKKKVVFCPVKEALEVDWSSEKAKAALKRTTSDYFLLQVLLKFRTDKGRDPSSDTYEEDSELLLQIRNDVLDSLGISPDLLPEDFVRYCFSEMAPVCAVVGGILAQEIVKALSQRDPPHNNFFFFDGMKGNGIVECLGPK
Chain of SUMO-activating enzyme (Q9UBT2 whole entry): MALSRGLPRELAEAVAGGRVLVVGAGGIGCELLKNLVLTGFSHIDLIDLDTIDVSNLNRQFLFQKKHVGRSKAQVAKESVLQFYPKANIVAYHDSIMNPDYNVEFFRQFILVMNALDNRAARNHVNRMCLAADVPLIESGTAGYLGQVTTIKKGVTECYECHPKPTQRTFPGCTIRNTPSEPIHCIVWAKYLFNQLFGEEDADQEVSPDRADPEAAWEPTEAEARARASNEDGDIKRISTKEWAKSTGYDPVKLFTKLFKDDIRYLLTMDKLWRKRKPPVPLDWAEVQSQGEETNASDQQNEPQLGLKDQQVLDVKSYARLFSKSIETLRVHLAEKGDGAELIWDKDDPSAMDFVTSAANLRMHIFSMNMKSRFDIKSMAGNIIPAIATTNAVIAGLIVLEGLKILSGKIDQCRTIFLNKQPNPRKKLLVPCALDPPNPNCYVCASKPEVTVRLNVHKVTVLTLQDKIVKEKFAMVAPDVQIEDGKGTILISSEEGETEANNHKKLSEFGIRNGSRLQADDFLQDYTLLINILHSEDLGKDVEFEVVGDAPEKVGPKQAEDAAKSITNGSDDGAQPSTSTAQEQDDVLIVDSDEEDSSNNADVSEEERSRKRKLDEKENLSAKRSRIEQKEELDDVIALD
Chain of Induced myeloid leukemia cell differentiation protein Mcl-1 (Q07820 whole entry): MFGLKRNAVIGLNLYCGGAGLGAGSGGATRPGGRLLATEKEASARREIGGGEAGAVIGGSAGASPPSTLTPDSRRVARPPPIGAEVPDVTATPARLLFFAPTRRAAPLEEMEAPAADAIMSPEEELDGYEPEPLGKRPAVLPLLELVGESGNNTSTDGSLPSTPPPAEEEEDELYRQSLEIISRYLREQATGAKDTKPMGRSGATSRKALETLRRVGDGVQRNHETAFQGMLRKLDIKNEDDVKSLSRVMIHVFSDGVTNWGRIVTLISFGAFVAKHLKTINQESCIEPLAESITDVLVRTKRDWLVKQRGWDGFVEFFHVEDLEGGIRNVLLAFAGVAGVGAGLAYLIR

Turning to `COc1ccccc1CCNC(=O)C(=O)NCCC1CCCCN1S(=O)(=O)c1cccs1` (stereo not given), in [1], the IC50 was 12.3 µM (active). In [2], the CC50 (usually the concentration that lowers cell viability or growth by half) is 36.7 µM (active).
Take `COc1ccc(NC(S)=NCc2cccnc2)cc1`: the EC50 in [3] and in assay [5] was > 350 µM (not active) in each case. Moreover, the IC50 in assay [4] is 17.8 µM (active).
With `S=C(Nc1ccccc1)N1CCC(Cc2ccccc2)CC1`, in [1], the IC50 was 18 µM (active).
As for `COC(=O)c1nc2n(n1)C(c1ccc([N+](=O)[O-])cc1)C(C(=O)Nc1ccc(Cl)cc1)=C(C)N2` (stereo not given), the values for the IC50 in [6], in assay [7] and in assay [4] were 32.4 µM (active), 17.8 µM (active) and > 20 µM (inactive), respectively. For the same molecule, in [8], the EC50 is > 53 µM (inactive).
Regarding `CC1CCCCC1NS(=O)(=O)c1ccc(S(=O)(=O)NCc2ccncc2)cc1` (stereo not given), the AC50 (in general, the midpoint of the concentration-response curve, whichever way the signal moves) in [9] was 3.4 µM (active). The IC50 in assay [1] was 1.43 µM (active).
For the molecule `Cc1nc(-c2c(C(F)(F)F)noc2-c2ccc(O)cc2O)cs1`, the concentration at half-maximal activity (AC50) in [10] is 3.16 µM (inconclusive). In addition, the figures for the IC50 in [7] and in [4] were 22.7 µM (active) and > 20 µM (inactive), respectively. Moreover, in assay [8], the EC50 is > 53 µM (inactive).
`COc1cc(OC)cc(C(=O)Nc2nnc(-c3cccnc3)o2)c1`: the AC50 in [11] is 97.6 µM (active).
As for `CCOC(=O)c1c(OCC)[nH]c2c1cc(O)c1ccccc12`, the AC50 in [11] is 93 µM (active); in assay [13], > 380 µM (inconclusive). Also, the results for the IC50 in assay [12], in [14] and in assay [15] were 63.5 µM (active), > 80 µM (inactive) and 0.935 µM (active), respectively. For the same molecule, the EC50 in [16] is 2.64 µM (active).
Take `COc1ccc(CCNC(=O)c2cc3c(=O)n4cccc(C)c4nc3s2)cc1OC`: the values for the IC50 in assay [17] and in assay [18] were > 66.6 µM (inactive) and 100 µM (inactive), respectively.
Turning to `CCOc1ncccc1C(=O)OCC(=O)Nc1nnc(-c2ccccc2)o1`, in [11], the AC50 was 107 µM (active).
Take `NCC(Cl)C(O)c1c[nH]c(N)n1` (stereo not given): the 50% growth inhibitory concentration (GI50) (usually the concentration at which growth is held to half of that of the control) in [19] is 0.507 µM (active); in [20], 0.232 µM (active); in assay [21] it was 0.0353 µM (active).
As to `O=C(NC(Cc1ccc(Cl)cc1)C(=O)O)c1ccc(I)cc1` (stereo not given), the GI50 is > 100 µM (inactive) in assay [19], 54.8 µM (inactive) in assay [20] and 64.7 µM (inactive) in assay [21].
For `COc1cc(C2c3cc4c(cc3[C@@H](Nc3cccc(CO)c3)C3COC(=O)[C@H]23)OCO4)cc(OC)c1O` (stereo not given in full), the GI50 in [19] is 0.0925 µM (active); in assay [20], 0.124 µM (active); in [21], < 0.01 µM (active).

(Values after ChEMBL document CHEMBL1201862, “PubChem BioAssay data set” (2004).)
